# Key:
# [1] = Rate of carbon disulfide loss from solutions, nitrogen bubbling, mass spectrometer; format: physicochemical; details: undiluted: Prep. 1 100%; pure carbon disulfide for comparison
# Protocol: The rate at which carbon disulfide is lost from diluted ammonium thiocarbonate compositions is determined by bubbling nitrogen through the solutions, and measuring the carbon disulfide content of the gas which leaves the solution, using a mass spectrometer.
# In the determination, the solution, corresponding to that of Preparation 1 (containing 14.1 percent by weight carbon disulfide), is compared to pure carbon disulfide, and to serial dilutions of the Preparation 1 solution with water, which prepared 10, 1 and 0.1 volume percent solutions of the original composition.
# Results are as tabulated, wherein k is the calculated first order rate constant for loss of carbon disulfide, and t is the solution half-life.
# [2] = Effect of pH on production of CS2 from thiocarbonates in citrate-phosphate buffers, gas chromatography of air; format: physicochemical
# Protocol: Pure carbon disulfide is also injected, for comparison. A syringe is used to periodically sample air in the bottle, and the air is analyzed by gas chromatography.
# [3] = system: nematode larvae; assay: In-vitro nematocidal test: larvae treated in aqueous suspension, injected into root zone of tomato plants, gall count; format: in vivo, Meloidogyne incognita; details: for Gall Count, replicate 2: control 88; for Gall Count, Mean: control 89; for Gall Count, replicate 1: control 90
# Protocol: The procedure of Example 2 is repeated except that potassium tetrathiocarbonate is substituted for stabilized ammonium tetrathiocarbonate and an in-vitro nematocidal test is used. In the in-vitro test, the nematode larvae are treated in aqueous suspension for 1 hour at the concentrations of fumigant given in the following table, washed twice with water, and injected into the active root zone of the tomato plants. After thirty days the roots are harvested, examined for galling, giving the results summarized below.
# [4] = Decomposition in sandy loam soil at different moisture, CS2 in air space by gas chromatography; format: physicochemical; details: hours to maximum CS2 concentration in the air space
# Protocol: A sandy loam soil is placed in 1-liter glass bottles, fitted with stoppers having fluorocarbon liners and silicone rubber septa, to give a soil depth of about 4 cm. […] Thiocarbonate solution or carbon disulfide is injected near the bottom of the soil layer, the bottles are promptly sealed, and the air space in the bottles is sampled at intervals with a syringe, for gas chromatographic analysis of CS2. Results are summarized below, wherein degradation time is the number of hours required to achieve the maximum CS2 concentration in the air space.
# [5] = system: root-knot nematode larvae (Meloidogyne incognita); assay: Greenhouse nematocide experiment with tomato plants, soil drench, root gall count; format: in vivo; details: 30 days; for Gall Counts, replicate 3: control 1; for Gall Counts, Mean: control 4.0; for Gall Counts, replicate 2: control 7; for Gall Counts, replicate 1: control 4
# Protocol: In the experiment, thirty containers are used, each containing about 500 grams of sterilized sandy loam soil. Each container contains one tomato plant. Each container is injected with four 5-milliliter portions of extract from nematode-infested pepper roots, one inch below the soil surface, producing an initial population of 2000 root-knot nematode larvae (Meloidogyne incognita) per container.
# Ten treatments are replicated three times, each treatment consisting of drenching the soil with a solution containing the fumigant to provide the dosage of CS2 given in the following table. The solutions are diluted with sufficient water to saturate the soil. The treatments include calcium tetrathiocarbonate, stabilized ammonium tetrathiocarbonate, and carbon disulfide at three levels, plus an untreated control. After drenching, each container is allowed to stand at ambient conditions. The plants are harvested after 30 days of growth, and soil is removed from the roots by a gentle washing with water. By use of a magnifying glass, the number of root galls is counted on each plant.
# Results are summarized below, wherein the "Application" represents milligrams of treatment per kilogram of soil, calculated as the thiocarbonate salt and the equivalent carbon disulfide. Gall counts are mean values from the three replicates.
# [6] = 10 ppm CS2, larvae treated 1 hour
# [7] = 20 ppm CS2, larvae treated 1 hour
# [8] = highest application: 638/89 ppm ((NH4)2CS4·(NH4)2S), 730/91 (CaCS4), 97 ppm (CS2)
# [9] = lowest application: 213/30 ppm ((NH4)2CS4·(NH4)2S), 245/31 (CaCS4), 32 ppm (CS2)
# [10] = middle application: 425/60 ppm ((NH4)2CS4·(NH4)2S), 490/61 (CaCS4), 65 ppm (CS2)
structure (smiles),measurement,setting,value
"S=C=S [CS2, carbon disulfide, reference compound]","k, calculated first order rate constant for loss of carbon disulfide",[1],2.0 (1)/(hour)
same,Half-life (minutes) for production of carbon disulfide,"[2]; pH 5.2, 125 milligrams per liter of thiocarbonate ion",1 min
same,Half-life (minutes) for production of carbon disulfide,"[2]; pH 6.0, 125 milligrams per liter of thiocarbonate ion",1 min
same,Half-life (minutes) for production of carbon disulfide,"[2]; pH 7.0, 125 milligrams per liter of thiocarbonate ion",1 min
same,Half-life (minutes) for production of carbon disulfide,"[2]; pH 8.0, 125 milligrams per liter of thiocarbonate ion, CaCS4 values above pH 7 called unreliable",1 min
same,"Gall Count, replicate 2",[3]; [6],149
same,"Gall Count, Mean",[3]; [6],106.5
same,"Gall Count, replicate 1",[3]; [6],64
same,"Gall Count, replicate 2",[3]; [7],73
same,"Gall Count, Mean",[3]; [7],51.0
same,"Gall Count, replicate 1",[3]; [7],29
same,Degradation Time,[4]; Soil Moisture 0 % of Saturation,3.5 h
same,Degradation Time,[4]; Soil Moisture 50 % of Saturation,3.5 h
same,Degradation Time,[4]; Soil Moisture 100 % of Saturation,3.5 h
same,"Gall Counts, replicate 3",[5]; [8],9
same,"Gall Counts, Mean",[5]; [8],20.0
same,"Gall Counts, replicate 2",[5]; [8],24
same,"Gall Counts, replicate 1","[5]; highest application: 638 ppm salt/89 ppm Eq. CS2 ((NH4)2CS4·(NH4)2S), 730/91 (CaCS4), 97 ppm (CS2)",27
same,"Gall Counts, replicate 3",[5]; [9],12
same,"Gall Counts, Mean",[5]; [9],22.0
same,"Gall Counts, replicate 2",[5]; [9],23
same,"Gall Counts, replicate 1","[5]; lowest application: 213 ppm salt/30 ppm Eq. CS2 ((NH4)2CS4·(NH4)2S), 245/31 (CaCS4), 32 ppm (CS2)",31
same,"Gall Counts, replicate 3",[5]; [10],33
same,"Gall Counts, Mean",[5]; [10],26.7
same,"Gall Counts, replicate 2",[5]; [10],19
same,"Gall Counts, replicate 1","[5]; middle application: 425 ppm salt/60 ppm Eq. CS2 ((NH4)2CS4·(NH4)2S), 490/61 (CaCS4), 65 ppm (CS2)",28

# — patent publication EP0337503B1, “Fumigation methods and compositions” (Entek Corporation, priority 1983, dated 1984)
